Patent US20230150951A1, “2,5- OR 2,6-DISUBSTITUTED HYDROQUINONE DERIVATIVES WITH AT LEAST ONE CARBOXY, SULFO OR AMIDO GROUP USEFUL AS MEDICAMENTS” (OM PHARMA SA, priority 2020, published 2023)
Where two headings read alike, the source gives them in different places.

Key:
Type in all cases: cell-based
IL-6 = test: Cytokine release after LPS induction on human whole blood: IL-6
Method: (§1) Aim of this in vitro method is to assess compounds effects on release of a panel of cytokines from whole blood following lipopolysaccharide (LPS) induced inflammatory reaction. Whole blood was incubated with compounds for 1 h prior to LPS induction. Cytokine levels in blood were measured using a multiplex FACS-based panel.
(§2) IC50 values determined for the tested compounds expressed in microM [μM] and the values for the inhibition of cytokines were listed for each compound.
(§3) Effect on cytokines release after LPS induction was performed on the compounds dissolved in DMSO or H2O to reach 10-fold concentrated stock solutions and dissolved in culture media.
(§4) Test system: Whole blood was removed from a single donor (into lithium heparin coated tubes; BD Vacutainer; 367886) and diluted 1:5 with RPMI 1640 (Thermo Fisher, 61870036). Within 30 minutes of sampling, blood was incubated with compounds for 1 h prior to LPS stimulation (O111:B4—Sigma L4391; 10 ng/ml final concentration). Stimulation continued under standard cell culture conditions (37° C. with 5% CO2) overnight (18 h), after which plates were centrifuged and supernatant removed and frozen at −80° C. until used for analyses.
(§5) Dilution of test compounds: 10×concentrated solutions (concerning to the final assay concentrations) of each test compound were prepared with the appropriate solvent (in DMSO or in water). These 10× compound solutions (10 μl) were then added to 90 μl pre-diluted whole blood (whole blood: RPMI1640, 1:5) resulting in the final assay concentration.
(§6) Test method: Diluted whole blood (80 μl) was pre-incubated with compounds (10 μl) to give final assay concentrations of 100, 30, 10, 3, 1, 0.3 and 0.1×10^−6M. Blood was incubated at 37° C. with 5% CO2 for 1 h. LPS was diluted in cell culture media to a concentration of […]; 10 μl was added to the whole blood to give a final concentration of 10 ng/ml. Plates were incubated at 37° C. for 18 h. Plates were centrifuged at 3,000 RPM for 5 minutes at 4° C. and supernatant removed and frozen at −80° C. until FACS analysis was carried out.
(§7) Cytokine release was measured using a custom multiplex system (ELISA Genie) according to manufacturers instructions. Prepared samples were run on an Attune NxT flow cytometer (Thermo Fisher).
(§8) Quantification of cytokine release inhibition: known concentration standards were run as part of the cytokine panel to allow quantification of each cytokine concentration in each sample. This was carried out using FCAP Array v3.0 software.
(§9) Results: The dose response relationship on cytokine release following LPS induction of inflammatory response in whole blood was assessed for all compounds. IC50 values were determined for each compound for a panel of cytokines (GM-CSF, IFN-gamma, IL-1beta, IL-2, IL-4, IL-5, IL-6, IL-8, IL-9, IL-10, IL-12p40, IL-13, IL-17A, IL-17F, IL-18, IL-21, IL-22, IL-33, TGF-beta, TNF-alpha, TNF-beta).

IL-10 = test: Cytokine release after LPS induction on human whole blood: IL-10
Method: as §1, §2, §3, §4, §5, §6, §7, §8, §9

IL-12p70 = test: Cytokine release after LPS induction on human whole blood: IL-12p70
IL-13 = test: Cytokine release after LPS induction on human whole blood: IL-13
Method: as §1, §2, §3, §4, §5, §6, §7, §8, §9

IL-17F = test: Cytokine release after LPS induction on human whole blood: IL-17F
Method: as §1, §2, §3, §4, §5, §6, §7, §8, §9

IL-21 = test: Cytokine release after LPS induction on human whole blood: IL-21
Method: as §1, §2, §3, §4, §5, §6, §7, §8, §9

IL-33 = test: Cytokine release after LPS induction on human whole blood: IL-33
Method: as §1, §2, §3, §4, §5, §6, §7, §8, §9

TNF-alpha = test: Cytokine release after LPS induction on human whole blood: TNFα
Method: as §1, §2, §3, §4, §5, §6, §7, §8, §9

TNF-beta = test: Cytokine release after LPS induction on human whole blood: TNFβ
Method: as §1, §2, §3, §4, §5, §6, §7, §8, §9

[1] = Homo sapiens, LPS 10 ng/ml, 18 h, read-out: Whole Blood: IL-6 IC50
[2] = human whole blood, inhibition of LPS induced inflammation, read-out: IC50 IL-6
[3] = Homo sapiens, LPS 10 ng/ml, 18 h, read-out: Whole Blood: IL-10 IC50
[4] = human whole blood, inhibition of LPS induced inflammation, read-out: IC50 IL-10
[5] = Homo sapiens, LPS 10 ng/ml, 18 h, read-out: Whole Blood: IL-12p70 IC50
[6] = human whole blood, inhibition of LPS induced inflammation, read-out: IC50 IL-12p70
[7] = Homo sapiens, LPS 10 ng/ml, 18 h, read-out: Whole Blood: IL-13 IC50
[8] = human whole blood, inhibition of LPS induced inflammation, read-out: IC50 IL-13
[9] = Homo sapiens, LPS 10 ng/ml, 18 h, read-out: Whole Blood: IL-17F IC50
[10] = human whole blood, inhibition of LPS induced inflammation, read-out: IC50 IL-17F
[11] = Homo sapiens, LPS 10 ng/ml, 18 h, read-out: Whole Blood: IL-21 IC50
[12] = human whole blood, inhibition of LPS induced inflammation, read-out: IC50 IL-21
[13] = Homo sapiens, LPS 10 ng/ml, 18 h, read-out: Whole Blood: IL-33 IC50
[14] = human whole blood, inhibition of LPS induced inflammation, read-out: IC50 IL-33
[15] = Homo sapiens, LPS 10 ng/ml, 18 h, read-out: Whole Blood: TNF α IC50
[16] = human whole blood, inhibition of LPS induced inflammation, read-out: IC50 TNFa
[17] = Homo sapiens, LPS 10 ng/ml, 18 h, read-out: Whole Blood: TNF β IC50
[18] = human whole blood, inhibition of LPS induced inflammation, read-out: IC50 β

Row | Structure (SMILES) | IC50 (IL-6; [1]) | IC50 (IL-6; [2]) | IC50 (IL-10; [3]) | IC50 (IL-10; [4]) | IC50 (IL-12p70; [5]) | IC50 (IL-12p70; [6]) | IC50 (IL-13; [7]) | IC50 (IL-13; [8]) | IC50 (IL-17F; [9]) | IC50 (IL-17F; [10]) | IC50 (IL-21; [11]) | IC50 (IL-21; [12]) | IC50 (IL-33; [13]) | IC50 (IL-33; [14]) | IC50 (TNF-alpha; [15]) | IC50 (TNF-alpha; [16]) | IC50 (TNF-beta; [17]) | IC50 (TNF-beta; [18]) | other results
1 | O=C(O)c1cc(O)c(C(=O)Nc2ccccc2C(=O)O)cc1O [Ia-001a, 4-(2-carboxyphenylaminocarbonyl)-2,5-dihydroxybenzoic acid] | 1.24 µM | 1.24 µM | > 100 µM | 100 µM | 1.5 µM | 1.5 µM | 26.4 µM | 26.4 µM | 14.7 µM | 14.7 µM | > 100 µM | 100 µM | 19.3 µM | 19.3 µM | 0.02 µM | 0.02 µM | 13.2 µM | 13.2 µM | 
2 | O=C(O)c1cc(O)c(C(=O)Nc2ccccc2-c2nnn[nH]2)cc1O [Ia-001a-Tz, 4-(2-(1H-tetrazol-5-yl)phenyl-aminocarbonyl)-2,5-dihydroxybenzoic acid] | 0.75 µM | 0.75 µM | 26.1 µM | 26.1 µM | 32.4 µM | 32.4 µM | 32.1 µM | 32.1 µM | 46.5 µM | 46.5 µM | > 100 µM | 100 µM | 23.6 µM | 23.6 µM | 0.63 µM | 0.63 µM | 53 µM | 53 µM | 
3 | O=C(O)c1cc(O)c(C(=O)Nc2ccccc2S(=O)(=O)O)cc1O [Ia-001c, 2,5-dihydroxy-4-(2-sulfophenylaminocarbonyl)benzoic acid] | 0.95 µM | 0.95 µM | 1.9 µM | 1.9 µM | 0.44 µM | 0.44 µM | 86.1 µM | 86.1 µM | 89.7 µM | 89.7 µM | > 100 µM | 100 µM | > 100 µM | 100 µM | 0.05 µM | 0.05 µM | 29.7 µM | 29.7 µM | 
4 | O=C(O)c1cc(O)c(C(=O)Nc2ccc(-c3nnn[nH]3)cc2)cc1O [Ia-003a-Tz, 4-(4-(1H-tetrazol-5-yl)phenyl-aminocarbonyl)-2,5-dihydroxybenzoic acid] | 1.41 µM | 1.41 µM | 6.94 µM | 6.94 µM | 1.26 µM | 1.26 µM | 89.6 µM | 89.6 µM | 83.9 µM | 83.9 µM | 1.49 µM | 1.49 µM | 72.2 µM | 72.2 µM | 0.18 µM | 0.18 µM | 55 µM | 55 µM | 
5 | O=C(O)c1cc(NC(=O)c2cc(O)c(C(=O)O)cc2O)cc(C(=O)O)c1 [Ia-015a, 5-(4-carboxy-2,5-dihydroxybenzamido)isophthalic acid] | 0.77 µM | 0.77 µM | 5.27 µM | 5.27 µM | 0.12 µM | 0.12 µM | 0.15 µM | 0.15 µM | 0.15 µM | 0.15 µM | 57.2 µM | 57.2 µM | 0.24 µM | 0.24 µM | 0.17 µM | 0.17 µM | 0.3 µM | 0.3 µM | 
6 | O=C(O)c1cc(NC(=O)c2cc(O)c(C(=O)O)cc2O)cc(NC(=O)c2cc(O)c(C(=O)O)cc2O)c1 [Ib-010a, 3,5-bis(2,5-dihydroxy-4-carboxybenzoylamino)benzoic acid] | 1.02 µM | 1.02 µM | > 100 µM | 100 µM | 0.27 µM | 0.27 µM | > 100 µM | 100 µM | > 100 µM | 100 µM | 67.8 µM | 67.8 µM | 31.3 µM | 31.3 µM | 0.31 µM | 0.31 µM | 49.3 µM | 49.3 µM | 
7 | CCOC(=O)c1cc(NC(=O)c2cc(O)c(C(=O)OCC)cc2O)cc(NC(=O)c2cc(O)c(C(=O)OCC)cc2O)c1 [Ib-010a-E3, ethyl 3,5-bis(2,5-dihydroxy-4-ethoxycarbonylbenzoylamino)benzoate] | 0.24 µM | 0.24 µM | > 100 µM | 100 µM | 0.84 µM | 0.84 µM | 33 µM | 33 µM | 34.2 µM | 34.2 µM | > 100 µM | 100 µM | 20 µM | 20 µM | 0.98 µM | 0.98 µM | 38.2 µM | 38.2 µM | 
8 | O=C(O)c1cc(NC(=O)c2cc(O)c(C(=O)Nc3ccccc3-c3nnn[nH]3)cc2O)ccc1O [Ic-001a-Tz/004a, 5-(4-(2-(1H-tetrazol-5-yl)phenylaminocarbonyl)-2,5-dihydroxybenzamido)-2-hydroxy benzoic acid] |  |  |  |  |  |  |  |  |  |  |  |  |  |  |  |  |  |  | IC50 (IL-6; Homo sapiens, 18 h, read-out: Whole Blood: IL-6 IC50): 3.04 µM; IC50 (IL-6; Homo sapiens, read-out: IC50 IL-6): 3.04 µM; IC50 (IL-10; Homo sapiens, 18 h, read-out: Whole Blood: IL-10 IC50): 19.5 µM; IC50 (IL-10; Homo sapiens, read-out: IC50 IL-10): 19.5 µM; IC50 (IL-12p70; Homo sapiens, 18 h, read-out: Whole Blood: IL-12p70 IC50): 12.2 µM; IC50 (IL-12p70; Homo sapiens, read-out: IC50 IL-12p70): 12.2 µM; IC50 (IL-13; Homo sapiens, 18 h, read-out: Whole Blood: IL-13 IC50): 1.5 µM; IC50 (IL-13; Homo sapiens, read-out: IC50 IL-13): 1.5 µM; IC50 (IL-17F; Homo sapiens, 18 h, read-out: Whole Blood: IL-17F IC50): 2.4 µM; IC50 (IL-17F; Homo sapiens, read-out: IC50 IL-17F): 2.4 µM; IC50 (IL-21; Homo sapiens, 18 h, read-out: Whole Blood: IL-21 IC50): 0.3 µM; IC50 (IL-21; Homo sapiens, read-out: IC50 IL-21): 0.3 µM; IC50 (IL-33; Homo sapiens, 18 h, read-out: Whole Blood: IL-33 IC50): 1.67 µM; IC50 (IL-33; Homo sapiens, read-out: IC50 IL-33): 1.67 µM; IC50 (TNF-alpha; Homo sapiens, 18 h, read-out: Whole Blood: TNF α IC50): 0.002 µM; IC50 (TNF-alpha; Homo sapiens, read-out: IC50 TNFa): 0.002 µM; IC50 (TNF-beta; Homo sapiens): 3.02 µM; IC50 (TNF-beta; Homo sapiens, 18 h, read-out: Whole Blood: TNF β IC50): 3.02 µM
9 | O=C(Nc1ccccc1-c1nnn[nH]1)c1cc(O)c(C(=O)Nc2ccccc2-c2nnn[nH]2)cc1O [Ic-001aTz2, N1,N4-bis(2-(1H-tetrazol-5-yl)phenyl)-2,5-dihydroxyterephthalamide] | 0.52 µM |  | > 100 µM |  | 29.1 µM |  | 0.12 µM |  | 0.15 µM |  | 32 µM |  | 0.23 µM |  | 0.1 µM |  | 0.41 µM |  | 
